Measured values published in ChEMBL document CHEMBL1201862, “PubChem BioAssay data set” (2004).
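Method: 48-hour compound exposure of cells in 96-well plates, five concentrations, linear interpolation of endpoints. GI50: concentration for 50% inhibition of growth.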 The source made the active and inactive calls. No stated cut-off is given here; in the data, active = GI50 up to about 1.1 µM and inactive = higher.

Experiments:
Assay in all cases: NCI tumour cell line growth inhibition, 48 h
HT-29 = test system: HT-29
OVCAR-5 = test system: OVCAR-5
Malme-3M = test system: Malme-3M
SK-MEL-28 = test system: SK-MEL-28
SNB-75 = test system: SNB-75
SF-295 = test system: SF-295
A549 = test system: A549
NCI-H226 = test system: NCI-H226
UO-31 = test system: UO-31
SK-MEL-5 = test system: SK-MEL-5
UACC-62 = test system: UACC-62
HL-60 = test system: HL-60
KM12 = test system: KM12
SW-620 = test system: SW-620
NCI-H23 = test system: NCI-H23
NCI-H522 = test system: NCI-H522

Measured: GI50

Cc1ccc(S(=O)(=O)OC2CC=CC2)cc1
inactive: HT-29 > 100 µM | OVCAR-5 > 100 µM | Malme-3M > 100 µM | SK-MEL-28 > 100 µM | SNB-75 > 100 µM | SF-295 > 100 µM | A549 > 100 µM | NCI-H226 > 100 µM | UO-31 > 100 µM | SK-MEL-5 > 100 µM | UACC-62 > 100 µM | HL-60 > 100 µM | KM12 > 100 µM | SW-620 > 100 µM

CN(c1ccccc1)C(c1ccccc1)C(O)c1ccccc1 (stereo not drawn)
inactive: HT-29 17.9 µM | OVCAR-5 19.5 µM | Malme-3M 16.3 µM | SK-MEL-28 20.5 µM | SNB-75 24.1 µM | SF-295 15.8 µM | A549 18.6 µM | UO-31 21.3 µM | SK-MEL-5 19.4 µM | UACC-62 17.9 µM | HL-60 15.5 µM | NCI-H23 22.4 µM | KM12 17.9 µM | SW-620 18.4 µM | NCI-H522 20 µM

CCN(CC)CCN1C(=O)CC2[C@@H]3CCc4cc(OC)ccc4C3CC[C@]2(C)C1=O (stereo partly drawn)
inactive: HT-29 18.4 µM | OVCAR-5 32.5 µM | Malme-3M 18.5 µM | SK-MEL-28 17.9 µM | SNB-75 33 µM | SF-295 18.4 µM | UO-31 17.4 µM | UACC-62 19.3 µM | HL-60 16.8 µM | NCI-H23 91.2 µM | KM12 33.5 µM | NCI-H522 22.3 µM

CC(O)CN1C(=O)NC(Cc2ccccc2)C1=O (stereo not drawn)
inactive: HT-29 > 100 µM | OVCAR-5 > 100 µM | SK-MEL-28 > 100 µM | SNB-75 > 100 µM | SF-295 > 100 µM | A549 > 100 µM | NCI-H226 > 100 µM | UO-31 > 100 µM | HL-60 > 100 µM | NCI-H23 > 100 µM | KM12 > 100 µM | SW-620 > 100 µM | NCI-H522 > 100 µM

COc1cc(C2C(C(=O)O)=C(C)Oc3cc4c(cc32)OCO4)cc(OC)c1OC (stereo not drawn)
inactive: HT-29 31.6 µM | Malme-3M 32.1 µM | SK-MEL-28 26.4 µM | SNB-75 14.6 µM | SF-295 17.3 µM | A549 45 µM | UO-31 15.3 µM | SK-MEL-5 23.1 µM | UACC-62 11.7 µM | HL-60 15.7 µM | NCI-H23 54.2 µM | SW-620 33.7 µM

COc1ccc(/C=C2/C(=O)N(C(=O)c3ccc(Cl)cc3)N=C2C)cc1OC
inactive: HT-29 > 100 µM | OVCAR-5 > 100 µM | Malme-3M > 100 µM | SK-MEL-28 > 100 µM | SF-295 > 100 µM | A549 > 100 µM | UO-31 > 100 µM | SK-MEL-5 > 100 µM | UACC-62 > 100 µM | HL-60 > 100 µM | NCI-H23 > 100 µM | KM12 > 100 µM | SW-620 > 100 µM | NCI-H522 > 100 µM

OCCCOC(c1ccccc1)(c1ccccc1)c1ccccc1
inactive: HT-29 24.3 µM | OVCAR-5 > 100 µM | Malme-3M > 100 µM | SK-MEL-28 > 100 µM | SNB-75 20.1 µM | SF-295 82.6 µM | A549 > 100 µM | UO-31 47 µM | SK-MEL-5 > 100 µM | UACC-62 88.5 µM | HL-60 > 100 µM | NCI-H23 75.7 µM | KM12 > 100 µM | SW-620 > 100 µM | NCI-H522 > 100 µM

COc1ccccc1/C=N/N=C(\N)NO
inactive: HT-29 18.6 µM | OVCAR-5 4.58 µM | Malme-3M 30 µM | SK-MEL-28 21.3 µM | SF-295 3.09 µM | A549 4.76 µM | NCI-H226 28.4 µM | UO-31 7.18 µM | SK-MEL-5 2.77 µM | UACC-62 4.21 µM | NCI-H23 45.2 µM | KM12 12.7 µM | SW-620 21.3 µM | NCI-H522 18.7 µM

CC(=O)NNc1nc(C)c(C(=O)NNC(=O)C(=O)Nc2c([N+](=O)[O-])ccc(C)c2C)s1
inactive: HT-29 > 100 µM | OVCAR-5 > 100 µM | Malme-3M > 100 µM | SK-MEL-28 > 100 µM | SF-295 > 100 µM | A549 > 100 µM | NCI-H226 > 100 µM | UO-31 > 100 µM | SK-MEL-5 > 100 µM | UACC-62 > 100 µM | HL-60 > 100 µM | NCI-H23 > 100 µM | KM12 > 100 µM | SW-620 76.9 µM | NCI-H522 50.9 µM

Cc1cc2c(c(C(N)=O)c1C)-c1ccccc1C2=O
inactive: HT-29 > 100 µM | OVCAR-5 > 100 µM | Malme-3M > 100 µM | SK-MEL-28 > 100 µM | SNB-75 83.2 µM | SF-295 > 100 µM | A549 > 100 µM | UO-31 > 100 µM | UACC-62 > 100 µM | HL-60 > 100 µM | NCI-H23 > 100 µM | KM12 2.42 µM | SW-620 > 100 µM | NCI-H522 > 100 µM
